Read-outs that look alike come from different tables or passages of the source. Residues, ends and D or L forms follow the SMILES beside them.
How the values were obtained:
[1] = system: Ras wild type and mutant cell lines; assay: MTT cell viability assay; format: cell-based; details: 72 hours, in presence of serum; oncogenic Ras mutant cell lines in comparison to wild-type Ras HeLa control
Protocol: Cell viability was monitored using the MTT (Sigma-Aldrich, M2128) or CellTiter-Glo Luminescent cell viability assay (Promega).
Cell viability was monitored using the MTT (Sigma-Aldrich, M2128) […] cell viability assay. Cells were plated in clear 96-well plates at 2000 cells/well and allowed to affix overnight at 37° C. Each well is gently aspirated and washed with serum-free medium before introducing peptide inhibitors dissolved in complete medium with 0.5% DMSO (v/v final) to desired concentrations (90 μL/well). The cells are incubated in the presence of peptide for 72 hours at 37° C. MTT reagent solution is composed of Thiazolyl Blue Tetrazolium Bromide dissolved in Dulbecco's Phosphate Buffered Saline (DPBS), pH 7.4 to a concentration of 5 mg/mL and subsequently sterile-filtered into a light-protected container. MTT reagent was added to each well (0.45 mg/mL/well final). The cells are incubated at 37° C. for an additional 4 hours. Upon careful removal of the supernatant, 150 μL DMSO (solubilization solution) is added to each well and mixed to ensure complete solubilization and release of the insoluble purple formazan precipitate into solution. Absorbance values are recorded with a Synergy HT Multi-Detection Microplate Reader (BioTek) at 570 nm.

H358 cells = assay: Flow cytometry cellular uptake, H358; format: cell-based; details: fluorescently labeled peptide 1 μM, 1 h
Protocol: (§1) All compounds are dissolved as concentrated stocks in DMSO.

wild-type H-Ras-GDP = molecular target: T1, wild-type H-Ras-GDP (Homo sapiens, UniProt P01112); assay: Microscale thermophoresis (MST), wild-type H-Ras-GDP; format: binding
T1 construct: Wild-type and mutant N-terminal His6-H-Ras (residues 1-166) in pProEx HTb expression vector; His6 (N); made in house; host or cells: Escherichia coli (BL21)
T1 sequence (P01112 1-166): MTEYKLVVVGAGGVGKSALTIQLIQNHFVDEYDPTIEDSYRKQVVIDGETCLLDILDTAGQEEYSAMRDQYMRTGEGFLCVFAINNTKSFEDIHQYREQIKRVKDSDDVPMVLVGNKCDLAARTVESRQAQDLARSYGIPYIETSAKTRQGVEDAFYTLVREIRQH
Protocol: Fluorescent labeling of the H-Ras protein was performed using the Monolith Protein Labeling Kit RED-MALEIMIDE 2nd Generation from NanoTemper (MO-L014) or AFDye 647 maleimide fluoroprobes (1122-1). Briefly, 20 nM of H-Ras protein was labeled with 1.5 equivalents of cysteine reactive dye in the 1× PBS under dark for 90 minutes. Labeled Ras proteins were then purified via the kit provided column, and the Degree of Label (DOL) was calculated by using the dye's absorbance and protein's original absorbance. The observed DOL value after the labeling for wild-type H-Ras-GDP was 0.43 and G12V H-Ras-GDP was 0.98.
MST binding assays were conducted with NanoTemper Monolith NT.115 Pico. Assay conditions were optimized with a premium coated capillary tube from NanoTemper to avoid random adsorption. Measurement was performed at 25° C. using 10-15% laser excitation power for 20 seconds. The assay buffer was composed of 50 mM Tris, 100 mM NaCl, and 0.1% pluronic acid. 5-10 nM of the dye labeled protein was exposed to serial dilutions of indicated CHDs and incubated for 90 mins in room temperature before the measurements. Error bars are generated from triplicates. Binding affinities were obtained from the MO analysis software in NT.115 Pico with the following equation:
[formula] [formula] • where, Unbd=Response value of unbound state Bd=Response value of bound state TC=Final concentration of fluorescent molecule

[2] = system: ERK phosphorylation in H358 cells; assay: ERK activation assay, H358; format: cell-based; details: H358 cells, 1, 5, 10 μM, 6 hours
Protocol: (§2) H358 or HeLa cells were initially seeded in 6-well plates (1x10^6 cells/well) and allowed to attach overnight. The cells were then incubated with indicated peptides dissolved in complete medium at specified concentrations for 6 hours at 37° C. The cells were washed twice with ice-cold PBS and then lysed in cold RIPA buffer (200 μL/well) containing 25 mM Tris-HCl, pH 7.6, 150 mM NaCl, 1% NP-40, 1% sodium doexycholic acid, 0.1% SDS, Roche Complete Protease inhibitor cocktail (1X, Sigma-Aldrich, P2714), and Roche PhosSTOP phosphatase inhibitor cocktail tablets (1X, Sigma-Aldrich, 4906845001). The cells are kept on ice for 5 minutes with occasional swirling for uniform spreading. Cell lysates are generated with a cell scraper, transferred to a microcentrifuge tube, and centrifuged at 13,000 rpm for 10 minutes at 4° C. The clarified supernatant was collected, and the total protein concentration was measured by Pierce BCA protein assay. The lysates were subjected to SDS-PAGE (10 μg/lane loading) and Western Blot analysis via immunoblotting. Primary antibodies include Phospho-p44/42 MAPK (Erk1/2) (Thr202/Tyr204) (Cell Signaling 4370), p44/42 MAPK (Erk1/2) (Cell Signaling 4695), Ras (Abcam ab 108602), and a-tubulin (Cell Signaling 2144). Secondary antibodies include anti-rabbit IgG, HRP-linked antibody (Cell Signaling 7074P2, 1:2000). […]

T24 cells = assay: Flow cytometry cellular uptake, T24; format: cell-based; details: fluorescently labeled peptide 1 μM, 1 h
Protocol: as §1

[3] = molecular target: T2, wild-type His6-tagged H-Ras (1-166) pre-loaded with GDP (Homo sapiens, UniProt P01112); assay: Fluorescence polarization binding assay, wild-type H-Ras-GDP
T2 construct: wild-type and mutant His6-tagged H-Ras (1-166) pre-loaded with GDP; made in house; host or cells: Escherichia coli (BL21)
T2 sequence (P01112 1-166): as above
Description: GTP of the Ras-specific nucleotide exchange factor SOS. Cell 112, 685-695 (2003).

[4] = system: ERK phosphorylation in HeLa cells; assay: ERK activation assay, HeLa; format: cell-based; details: HeLa cells (wild-type Ras), 1, 5, 10 μM, 6 hours
Protocol: as §2

in vitro = details: bovine, 25% fetal bovine serum
Protocol: A 45 μL mixture of 33% FBS (v/v) in serum-free medium was prepared for each sample. The addition of 15 μL of indicated peptide in serum-free medium (25% FBS final) per each experiment was recorded as the starting time point. Time points of 5 min, 6 hours, 12 hours, and 24 hours were analyzed in triplicate. Each experiment was quenched at the determined time point by adding 30 μL 100% EtOH, which was prepared at −70° C. After cooling on ice for 10 minutes, each sample was pelleted at 14,000× g for 5 minutes. 30 μL of the supernatant was isolated, and 3 μL of 500 μM L-Tryptophan was titrated into the sample to be used as an internal standard. The resulting mixture was then immediately subjected to RP-HPLC with a C18 3.5 μm 2.1×150 mm analytical column and monitored at 280 nm. Eluting peaks were collected, and the mass of each peak was determined using MALDI-TOF spectroscopy. Integrated peak area of non-degraded peptides was used to determine the percent surviving in each given condition.

SW780 cells = SW780 cells (oncogenic FGFR3 fusions), 1 μM, 1 h
Protocol: The indicated cell lines were seeded at 1×10^5 cells/well in clear polystyrene 24-well plates (Corning) and incubated overnight. The initial growth medium is replaced with serum-free medium and incubated for 2 hours at 37° C. Upon aspiration, the cells are incubated in serum-free medium containing 0.4% DMSO (v/v) for one hour. The cells were then treated with 1 μM (final) of fluorescein-conjugated peptides in serum-free medium for another hour while protected from light. All compounds are dissolved as concentrated stocks in DMSO. Each well was aspirated and treated with 1× trypsin (0.25% trypsin, 2.21 mM EDTA, Corning Cellgro) for 10 minutes at 37° C. After trypsinization, the resulting solution was mixed with cold serum-free medium and collected. The samples are centrifuged at 500 rpm for 5 minutes at 4 °C.
The supernatant was removed, and the cell pellets were resuspended with cold PBS before placed on ice. Each sample was treated with 10% trypan blue (v/v) immediately before analysis by flow cytometry on a Becton Dickinson Accuri flow cytometer. The presented data consists of the median fluorescence intensities for at least 10,000 cells/sample and processed using FlowJo (Tree Star Inc.).

[5] = molecular target: G12C mutant H-Ras pre-loaded with GDP (Homo sapiens, UniProt P01112, G12C)
Chain of G12C mutant H-Ras pre-loaded with GDP (P01112 1-166 G12C): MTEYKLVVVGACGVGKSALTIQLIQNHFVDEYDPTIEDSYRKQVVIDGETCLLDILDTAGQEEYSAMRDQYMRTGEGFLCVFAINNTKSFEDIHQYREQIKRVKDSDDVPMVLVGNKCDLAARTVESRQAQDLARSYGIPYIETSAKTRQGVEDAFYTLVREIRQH
Protocol: (§3) Wild-type and mutant N-terminal His6-H-Ras (residues 1-166) in pProEx HTb expression vector were expressed in Escherichia coli (BL21). Cells were grown at 37 ° C. to an absorbance of 0.7 at 600 nm. Protein expression was induced with 500 μM isopropyl β-D-1-thiogalactopyranoside (IPTG) for 6 hours at 30° C. or overnight at 18° C. The bacterial cells were pelleted via centrifugation at 4500 rpm for 15 minutes. Bacterial pellets were resuspended in a lysis buffer containing 20 mM Tris pH 7.4, 300 mM NaCl, 2 mM 2-mercaptoethanol, and a complete, EDTA-free protease inhibitor cocktail (Roche). The lysis, elution and dialysis buffers were also supplemented with 2.5 mM MgCl2. The resuspended pellets were sonicated using a Branson Cell Disrupter 200. Clarified lysates were formed upon centrifugation at 13,000 rpm for 20 minutes at 4° C. and incubated with charged Ni-NTA resin (Invitrogen) at 4° C. for 1 hour. The resin beads were washed five times with resuspension buffer containing 5 mM imidazole. The His6-tagged proteins were eluted via gravity flow with buffer containing 200 mM imidazole in buffer containing 20 mM Tris, 300 mM NaCl, pH 7.4. Eluted proteins were dialyzed twice against buffer containing 20 mM Tris, 300 mM NaCl, 2.5 mM MgCl2, pH 7.4 for H-Ras. For HSQC and photoaffinity labeling studies, the polyhistidine tag was cleaved using Tobacco Etch Virus (TEV) protease before proceeding to nucleotide loading.
(§4) The generated binding affinity (KD) values for each compound are from biological triplicate studies and were determined via fitting to a sigmoidal dose-response nonlinear regression model on Graphpad Prism 6.

[6] = molecular target: G12V mutant H-Ras pre-loaded with GDP (Homo sapiens, UniProt P01112, G12V)
Chain of G12V mutant H-Ras pre-loaded with GDP (P01112 1-166 G12V): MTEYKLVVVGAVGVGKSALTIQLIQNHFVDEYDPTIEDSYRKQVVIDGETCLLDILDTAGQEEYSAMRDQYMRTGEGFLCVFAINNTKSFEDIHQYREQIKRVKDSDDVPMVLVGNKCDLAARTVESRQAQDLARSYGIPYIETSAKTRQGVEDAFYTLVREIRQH
Protocol: as §3, §4

[7] = molecular target: G12D mutant H-Ras pre-loaded with GDP (Homo sapiens, UniProt P01112, G12D)
Chain of G12D mutant H-Ras pre-loaded with GDP (P01112 1-166 G12D): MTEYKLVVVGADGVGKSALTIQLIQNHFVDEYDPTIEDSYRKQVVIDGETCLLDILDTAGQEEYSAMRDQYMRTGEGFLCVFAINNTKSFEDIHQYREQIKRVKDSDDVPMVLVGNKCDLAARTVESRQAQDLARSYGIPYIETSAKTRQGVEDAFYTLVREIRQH
Protocol: as §3, §4

[8] = compared to CHD^Sos-2

SMILES	cell viability (MTT) [1]	cellular uptake, median fluorescence intensity (H358 cells)	concentration above which aggregation was observed (wild-type H-Ras-GDP; MST with wild-type H-Ras-GDP, interrupted binding isotherm)	Kd (wild-type H-Ras-GDP; MST, fluorescently-labeled Ras, read-out: binding affinity, Kd) [µM]	effect on ERK phosphorylation [2]	cellular uptake, median fluorescence intensity (T24 cells)	Kd ([3]; fluorescein-derivatized CHD, GDP-bound wild-type H-Ras, fluorescence polarization, read-out: binding affinity, Kd) [µM]	effect on ERK phosphorylation [4]	half-life (in vitro) [h]	remaining at 24 h (in vitro) [%]	Kd (wild-type H-Ras-GDP) [µM]	cellular uptake (SW780 cells)	Kd [3] [µM]	binding affinity [5]	binding affinity [6]	binding affinity [7]	aqueous solubility [8]
CC[C@H](C)[C@H](NC(=O)[C@H](C)NC(C)=O)C(=O)NCC(=O)N[C@@H](CCCNC(=N)N)C(=O)N[C@@H](CC(C)C)C(=O)N[C@@H](CSCc1ccc(COCc2ccc(CSC[C@H](NC(=O)[C@H](CC(C)C)NC(=O)[C@H](CCCNC(=N)N)NC(=O)[C@H](C)NC(=O)[C@H](CC(C)C)NC(=O)[C@H](CCC(=O)O)NC(=O)[C@H](CCCNC(=N)N)NC(=O)[C@H](CCC(=O)O)NC(=O)[C@H](CC(C)C)NC(=O)[C@H](CCC(=O)O)NC(=O)[C@H](CCCNC(=N)N)NC(=O)[C@H](CC(C)C)NC(=O)[C@H](CCCNC(=N)N)NC(=O)[C@H](Cc3c[nH]c4ccccc34)NC(=O)[C@H](C)NC(=O)[C@H](CC(C)C)NC(C)=O)C(N)=O)cc2)cc1)C(=O)N[C@H](C(=O)N[C@@H](CCC(=O)O)C(=O)N[C@H](C(=O)N[C@@H](CC(C)C)C(=O)N[C@@H](CCCNC(=N)N)C(=O)N[C@@H](CC(C)C)C(=O)N[C@@H](CCCNC(=N)N)C(=O)N[C@@H](CC(N)=O)C(=O)NCC(=O)N[C@@H](C)C(N)=O)[C@@H](C)CC)[C@@H](C)O [CHC^Sos-3] (HELM PEPTIDE1{[ac].A.I.G.R.L.C.T.E.I.L.R.L.R.N.G.A.[am]}|PEPTIDE2{[ac].L.A.W.R.L.R.E.L.E.R.E.L.A.R.L.C.[am]}|CHEM1{[c1cc(C[*:1])ccc1COCc1ccc(C[*:2])cc1]}$PEPTIDE1,CHEM1,7:R3-1:R1|PEPTIDE2,CHEM1,17:R3-1:R2$$$V2.0)	little to no effect	lower uptake than CHC^Sos-5	higher than 3 μM	> 100	did not suppress ERK phosphorylation	lower uptake than CHC^Sos-5	> 100	did not suppress ERK phosphorylation	–	–	–	–	–	–	–	–	–
CC[C@H](C)[C@H](NC(=O)[C@H](Cc1c[nH]c2ccccc12)NC(C)=O)C(=O)NCC(=O)N[C@@H](CCCNC(=N)N)C(=O)N[C@@H](CC(C)C)C(=O)N[C@@H](CSCc1ccc(COCc2ccc(CSC[C@H](NC(=O)[C@H](CC(C)C)NC(=O)[C@H](CCCNC(=N)N)NC(=O)[C@H](C)NC(=O)[C@H](CC(C)C)NC(=O)[C@H](CCC(=O)O)NC(=O)[C@H](CCCNC(=N)N)NC(=O)[C@H](CCC(=O)O)NC(=O)[C@H](CC(C)C)NC(=O)[C@H](CCC(=O)O)NC(=O)[C@H](CCCNC(=N)N)NC(=O)[C@H](CC(C)C)NC(=O)[C@H](CCCNC(=N)N)NC(=O)[C@H](Cc3c[nH]c4ccccc34)NC(=O)[C@H](C)NC(=O)[C@H](CC(C)C)NC(C)=O)C(N)=O)cc2)cc1)C(=O)N[C@H](C(=O)N[C@@H](CCC(=O)O)C(=O)N[C@H](C(=O)N[C@@H](CCCCNC(=N)N)C(=O)N[C@@H](CCCNC(=N)N)C(=O)N[C@@H](CC(C)C)C(=O)N[C@@H](CCCNC(=N)N)C(=O)N[C@@H](CC(N)=O)C(=O)NCC(=O)N[C@@H](CC(N)=O)C(N)=O)[C@@H](C)CC)[C@@H](C)O [CHC^Sos-5] (HELM PEPTIDE1{[ac].L.A.W.R.L.R.E.L.E.R.E.L.A.R.L.C.[am]}|PEPTIDE2{[ac].W.I.G.R.L.C.T.E.I.[N=C(N)NCCCC[C@H](N[*:1])C(=O)[*:2]].R.L.R.N.G.N.[am]}|CHEM1{[c1cc(C[*:1])ccc1COCc1ccc(C[*:2])cc1]}$PEPTIDE1,CHEM1,17:R3-1:R1|PEPTIDE2,CHEM1,7:R3-1:R2$$$V2.0)	–	–	–	–	–	–	–	–	> 24	~60	0.3 ± 0.1	permeable	2 ± 0.3	low micromolar affinity range	low micromolar affinity range	low micromolar affinity range	improves its aqueous solubility
